According to the supplement of paper PMC10307832:

Experiments:
Assay in all cases: relative viability (nuclei count vs DMSO), 5 days (fraction); higher = more cells survive
Afatinib + Tozasertib = compound: CN(C)C/C=C/C(=O)Nc1cc2c(Nc3ccc(F)c(Cl)c3)ncnc2cc1O[C@H]1CCOC1 [Afatinib] + Cc1cc(Nc2cc(N3CCN(C)CC3)nc(Sc3ccc(NC(=O)C4CC4)cc3)n2)n[nH]1 [Tozasertib] (partner 0.1 µM)
How it was run: (§1)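 Relative viability divides the nuclei count in treated wells by that in vehicle wells. Lung cancer cell lines were seeded in 1536-well plates, dosed by pin tool the next day, and fixed and stained after 5 days in one step with final 0.05% Triton X-100, 1% formaldehyde and 1 ug/ml Hoechst. Dosing was a single drug or a fixed anchor-drug dose plus five library-drug doses (not always all listed) in √10 steps, and values are medians of duplicate plates imaged at 4×.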

Afatinib + Dasatinib = compound: CN(C)C/C=C/C(=O)Nc1cc2c(Nc3ccc(F)c(Cl)c3)ncnc2cc1O[C@H]1CCOC1 [Afatinib] + Cc1nc(Nc2ncc(C(=O)Nc3c(C)cccc3Cl)s2)cc(N2CCN(CCO)CC2)n1 [Dasatinib] (partner 0.075 µM)
How it was run: as §1

Afatinib + Foretinib = compound: CN(C)C/C=C/C(=O)Nc1cc2c(Nc3ccc(F)c(Cl)c3)ncnc2cc1O[C@H]1CCOC1 [Afatinib] + COc1cc2c(Oc3ccc(NC(=O)C4(C(=O)Nc5ccc(F)cc5)CC4)cc3F)ccnc2cc1OCCCN1CCOCC1 [Foretinib] (partner 0.25 µM)
How it was run: as §1

Afatinib + Phenformin = compound: CN(C)C/C=C/C(=O)Nc1cc2c(Nc3ccc(F)c(Cl)c3)ncnc2cc1O[C@H]1CCOC1 [Afatinib] + N=C(N)NC(=N)NCCc1ccccc1 [Phenformin] (partner 250 µM)
How it was run: as §1

Afatinib + OSI-027 = compound: CN(C)C/C=C/C(=O)Nc1cc2c(Nc3ccc(F)c(Cl)c3)ncnc2cc1O[C@H]1CCOC1 [Afatinib] + COc1cccc2cc(-c3nc([C@H]4CC[C@H](C(=O)O)CC4)n4ncnc(N)c34)[nH]c12 [OSI-027] (partner 0.5 µM)
How it was run: as §1

Afatinib + Luminespib = compound: CN(C)C/C=C/C(=O)Nc1cc2c(Nc3ccc(F)c(Cl)c3)ncnc2cc1O[C@H]1CCOC1 [Afatinib] + CCNC(=O)c1noc(-c2cc(C(C)C)c(O)cc2O)c1-c1ccc(CN2CCOCC2)cc1 [Luminespib] (partner 0.01 µM)
How it was run: as §1

Afatinib = compound: CN(C)C/C=C/C(=O)Nc1cc2c(Nc3ccc(F)c(Cl)c3)ncnc2cc1O[C@H]1CCOC1 [Afatinib]
How it was run: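 Five library-drug doses spaced by √10 were pinned onto vehicle-anchored 1536-well plates of lung cancer cell lines that had been kept overnight at 37 °C. Cells went 5 days without medium change, then were fixed, permeabilised and Hoechst-stained together, imaged at 4× and counted by MetaXpress. Viability is the ratio of treated-well to vehicle-well nuclei, taken as a median over plates. Plates required control CV below 25% and at least one doubling.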

## NCI-H1623
Afatinib + Tozasertib; first compound 0.005 µM
  relative viability: 0.397
Afatinib + Tozasertib; first compound 0.01581 µM
  relative viability: 0.346
Afatinib + Tozasertib; first compound 0.05 µM
  relative viability: 0.285
Afatinib + Tozasertib; first compound 0.1581 µM
  relative viability: 0.121
Afatinib + Tozasertib; first compound 0.5 µM
  relative viability: 0.148
Afatinib + Dasatinib; first compound 0.005 µM
  relative viability: 0.446
Afatinib + Dasatinib; first compound 0.01581 µM
  relative viability: 0.472
Afatinib + Dasatinib; first compound 0.05 µM
  relative viability: 0.375
Afatinib + Dasatinib; first compound 0.1581 µM
  relative viability: 0.198
Afatinib + Dasatinib; first compound 0.5 µM
  relative viability: 0.226
Afatinib + Foretinib; first compound 0.005 µM
  relative viability: 0.694
Afatinib + Foretinib; first compound 0.01581 µM
  relative viability: 0.597
Afatinib + Foretinib; first compound 0.05 µM
  relative viability: 0.414
Afatinib + Foretinib; first compound 0.1581 µM
  relative viability: 0.213
Afatinib + Phenformin; first compound 0.005 µM
  relative viability: 0.548
Afatinib + Phenformin; first compound 0.01581 µM
  relative viability: 0.499
Afatinib + Phenformin; first compound 0.05 µM
  relative viability: 0.36
Afatinib + Phenformin; first compound 0.1581 µM
  relative viability: 0.16
Afatinib + Phenformin; first compound 0.5 µM
  relative viability: 0.431
Afatinib + OSI-027; first compound 0.005 µM
  relative viability: 0.394
Afatinib + OSI-027; first compound 0.01581 µM
  relative viability: 0.324
Afatinib + OSI-027; first compound 0.05 µM
  relative viability: 0.255
Afatinib + OSI-027; first compound 0.1581 µM
  relative viability: 0.189
Afatinib + OSI-027; first compound 0.5 µM
  relative viability: 0.243
Afatinib + Luminespib; first compound 0.005 µM
  relative viability: 0.489
Afatinib + Luminespib; first compound 0.01581 µM
  relative viability: 0.454
Afatinib + Luminespib; first compound 0.05 µM
  relative viability: 0.325
Afatinib + Luminespib; first compound 0.1581 µM
  relative viability: 0.214
Afatinib + Luminespib; first compound 0.5 µM
  relative viability: 0.281
Afatinib; 0.005 µM
  relative viability: 0.822
Afatinib; 0.01581 µM
  relative viability: 0.813
Afatinib; 0.05 µM
  relative viability: 0.42
Afatinib; 0.1581 µM
  relative viability: 0.221
Afatinib; 0.5 µM
  relative viability: 0.267
